Test results as given in US20250241878A1, “TYROSINE AND RESVERATROL DERIVATIVES AS NOVEL MODULATORS OF CELLULAR SERINE ADP-RIBOSYLATION” (UNIVERSITY OF SOUTH CAROLINA, priority 2022, published 2025).
“Also recorded” adds a separate entry of the source. Read-outs that look alike come from different tables or passages of the source. Where a SMILES comes first, the peptide text is derived from it. The star is where a group is joined. Cbz = O=C(OCc1ccccc1)*

Legend:
[1] = test system: rat cortical neurons; assay: MTT cell viability assay; conditions: for effect on trans-RSV-mediated neurotoxicity: combination with trans-RSV; for effect on cis-RSV-mediated neuroprotective effects: combination with cis-RSV, NMDA toxicity; for neurotoxicity (viability): D-amino acid alone
Protocol: (§4) Rat cortical neurons (DIV9-11) were exposed to different treatments (NMDA, ETO, H2O2, MPP+) after seeding 20,000 cells/well in 96-well plates. Cell viability was then assessed at 48 hr after the initial exposure to NMDA. 3-[4,5-dimethylthiazole-2-yl]-2,5-diphenyltetrazolium bromide (MTT) assays were used to assess change in cell viability. […] Cultured rat cortical neurons were incubated with MTT (0.5 mg/mL). In the MTT assay, after 2 hr incubation, the insoluble purple product formazan resulting from the reduction of MTT by NAD (P) H-dependent oxidoreductases present in cells with viable mitochondria was solubilized in dimethyl sulfoxide at room temperature, under agitation, and protected from light. The percentage of MTT reduced as measured by the difference between the absorbances at 570 nm read in a spectrophotometer (SpectraMax® 190R Molecular Devices, UK).

[2] = test system: monosomes; assay: Monosome formation in cortical neurons; assay type: cell-based, rat
[3] = test system: PheRSα/β; assay: PheRSα/β protein levels in cortical neurons (Western blot); assay type: cell-based, rat; conditions: for PheRSβ levels: compound alone
Protocol: (§1) Primary cortical neurons were dissected from E18 Sprague Dawley rat pups in Hibernate E (BrainBits®) and dissociated using the Neural Tissue Dissociation kit (Miltenyi Biotec). Minced cortices were incubated in a pre-warmed enzyme mix at 37° C. for 15 min; tissues were then triturated and strained using a 40 μm cell strainer. After washing and centrifugation, neurons were seeded in 50 μg/ml poly-D-Lysine (Sigma-Aldrich) coated tissue culture plates. NBActive-1 medium (BrainBits®) supplemented with 100 U/ml of Penicillin-Streptomycin (Life Technologies™), 2 mM L-Glutamine (Life Technologies™), and 1×N21 supplement (R&D Systems™) was used as culture medium. For preparation of culture medium containing reduced tyrosine, the components of NBActive-1 medium were altered to combined with a reduced concentration of tyrosine, as mentioned in Table 1, and was supplemented with 100 U/ml of Penicillin-Streptomycin (Life Technologies™), 2 mM L-Glutamine (Life Technologies™), and 1×N21 supplement (R&D Systems™) to obtained culture medium with reduced tyrosine. Control (non-targeting), TyrRS, and PARP1 siRNAs were obtained from Invitrogen™ (#AM4635, s443, and s130207, respectively). Rat cortical neurons at 5 DIV were transfected with 75 nM control or TyrRS siRNA using DharmaFECT™ 3 Transfection Reagent. A second transfection was done two days later using 75 nM of TyrRS siRNA, followed by cell collection or assays after another 48 hr. For PARP1 siRNA, neurons at 7 DIV were transfected with 75 nM siRNA for both control and PARP1 siRNA.
(§2) Cultured neurons (DIV 9-10) were washed once with cold 1×PBS and lysed in cell lysis buffer (20 mM Tris-HCl (pH 7.5), 150 mM NaCl, 1 mM Na2EDTA, 1 mM EGTA, 1% Triton™, 2.5 mM sodium pyrophosphate, 1 mM beta-glycerophosphate, 1 mM Na3VO4, 1 μg/ml leupeptin supplemented with protease inhibitor). The lysates were centrifuged at 10,000 RPM for 15 mins at 4° C. to separate the chromatin-bound and soluble fractions. Lysates were quantified using Bio-Rad™ Protein Assay and equal amounts of protein were loaded onto a 4 to 12% gradient gel (Invitrogen™ NuPAGE™). Protein was transferred from the gel to 0.2 μm NC membranes at 25 V for 10 mins using transfer stacks (iBlot™ 2-Invitrogen™) and blocked with 5% non-fat milk in TBST (10 mM Tris-HCl pH 8.0, 150 mM NaCl, 0.01% Tween-20) for 1 hr before application of primary antibodies. Primary and secondary antibodies were incubated overnight at 4° C. and for 1 hr at room temperature, respectively. Immobilon® ECL Ultra Western HRP Substrate (WBULS0500, Millipore™) and a luminescent image analyzer (ChemiDoc™ Imaging System, Bio-Rad™) were used to detect proteins. Quantification of western blots was done using ImageJ (Version 1.53c).
(§3) The various compounds used for treatments and their stock concentrations in Table 4.

[4] = test system: TyrRS; assay type: cell-based, rat; conditions: for levels of neuronal TyrRS: neurotoxic agent alone, after 4 hr of treatment; for neuronal TyrRS levels: picomolar concentration (5-50 pM)
Protocol: as §1, §2
Cultured cortical neurons (DIV 9-10) were fixed in 4% formaldehyde for 15 min, followed by permeabilization and blocking for 30 min in 5% BSA (PBS) and 0.1% Tween™ 20 at room temperature. Incubation with primary antibodies was done at 4° C. overnight. The names and dilutions of the primary antibodies used for IF are described in Table 3. Secondary antibodies were incubated for 1 hr at room temperature. Secondary antibodies used were Alexa Fluor® 647 (anti-chicken), Alexa Fluor® 555 (anti-mouse), Alexa Fluor® 488 (anti-rabbit) from Invitrogen™ at 1:1000 dilution. Coverslips were then mounted using DAPI (4′,6-diamidino-2-phenylindole)-supplemented mounting medium, ProLong™ Gold Antifade (Invitrogen™) and imaged with Leica DMI6000 epifluorescent microscope using oil immersion 63×/NA 1.4 objective. The quantification for total protein levels in neurons was done using ImageJ (version 1.53c), and imaging parameters were matched for exposure, gain, and offset.
as §3

[5] = test system: cleaved caspase-3; assay: Cleaved caspase-3 immunoblot; assay type: cell-based, rat; conditions: compound alone; trans-RSV at high concentration
Protocol: FIG. 17E presents immunoblots showing the levels of cleaved caspase-3 in rat cortical neurons (DIV 9/10) after the treatment with D-Tyr (2 mM) for 16 hr.

[6] = test system: histone H3-Ser10-ADP-ribosylation; assay: Histone H3 serine-ADP-ribosylation immunoblot in cortical neurons; assay type: cell-based, rat; conditions: for histone H3 serine-ADP-ribosylation: compound alone; for histone serine-ADP-ribosylation: picomolar concentration (5-50 pM)
Protocol: FIG. 5B presents representative immunoblots and quantification of histone H3-Ser10-ADP-ribosylation levels in cortical neurons (DIV9) using anti-H3-Ser10-ADPR antibody after treatment with D-tyrosine (2.5 and 5 mM).
as §2

[7] = test system: rat cortical neurons
Protocol: as §4

[8] = test system: HPF1; assay: HPF1 levels immunoblot in cortical neurons; assay type: cell-based, rat; conditions: compound alone
Protocol: FIG. 5A presents immunoblots showing the protein levels of HPF1 in rat cortical neurons (DIV9-10) after treatment with Tyr ([…]) for up to 8 hr.
as §2

[9] = test system: eEF2; assay: eEF2 phosphorylation (p-eEF2) Western blot in cortical neurons; assay type: cell-based, rat; conditions: compound alone
Protocol: as §1, §2

[10] = test system: neuronal chromatin; assay: Chromatin fraction immunoblots of cortical neurons; assay type: cell-based, rat; conditions: picomolar concentration
Protocol: as §2

[11] = compound alone, rat cortical neurons

CCn1c(=O)c2cc(C(N)=O)c(N)nc2n(C2CC2)c1=O [eEF2K inhibitor]
effect on trans-RSV-mediated neurotoxicity [1]: protected against neurotoxic effects of trans-RSV

Cn1ncnc1[C@H]1c2n[nH]c(=O)c3cc(F)cc(c23)N[C@@H]1c1ccc(F)cc1 [talazoparib]
effect on amyloid beta 42-induced monosome formation ([2]; combination with amyloid beta 42 (10 picomolar)): lost

CN(C)Cc1ccc(-c2nc3cccc4c3n2CCNC4=O)cc1 [AG-14361]
effect on cis-RSV-mediated neuroprotective effects [1]: did not affect cis-RSV-mediated neuroprotective effects

N[C@@H](Cc1ccccc1)C(=O)O [phenylalanine, L-phenylalanine]
PheRSβ levels [3]: decreased the levels of TyrRS and PheRSβ | TyrRS protein levels [4, 11]: decreased the levels of TyrRS

N[C@H](Cc1ccccc1)C(=O)O [D-Phe]
neurotoxicity (viability) [1]: had no significant effects

N[C@H](Cc1ccc(O)cc1)C(=O)O [D-Tyr, D-tyrosine]
neurotoxicity (viability) [1]: induced neurotoxicity | levels of cleaved caspase-3 [5]: increased the levels of cleaved caspase-3 | histone H3 serine-ADP-ribosylation [6]: potent inhibitor of TyrRS/PARP1/HPF1-dependent serine-ADP-ribosylation and DNA repair

O=C(c1cc(Cc2n[nH]c(=O)c3ccccc23)ccc1F)N1CCN(C(=O)C2CC2)CC1 [olaparib]
effect on cis-RSV-mediated neuroprotective effects [1]: mitigated the neuroprotective effects of cis-RSV | effect on trans-RSV-mediated neurotoxicity [1]: did not affect trans-RSV-mediated neurotoxicity

N[C@@H](Cc1ccc(O)c(O)c1)C(=O)O [L-DOPA, 3,4-dihydroxy-L-phenylalanine]
PheRSβ levels [3]: decreased the levels of TyrRS and PheRSβ | TyrRS protein levels [4, 11]: decreased the levels of TyrRS

N[C@H](Cc1c[nH]c2ccccc12)C(=O)O [D-Trp]
neurotoxicity (viability) [7]: had no significant effects

CN[C@H](CC(=O)O)C(=O)O [NMDA, N-Methyl-D-aspartate]
levels of neuronal TyrRS [4]: decreased the levels of neuronal TyrRS

O=C(COc1ccc(Cl)cc1)NC1CCC(NC(=O)COc2ccc(Cl)cc2)CC1 (stereo not shown) [ISRIB]
HPF1 levels [8]: increased HPF1 levels | eEF2 phosphorylation (p-eEF2) [9]: stimulated the dephosphorylation of eEF2 | PheRSβ protein levels ([3]; ISRIB 5-50 nM): increased the protein levels of TyrRS and PheRSβ | TyrRS protein levels ([4]; ISRIB 5-50 nM): increased the protein levels of TyrRS | effect on trans-RSV mediated depletion of TyrRS ([4]; combination with trans-RSV): rescued trans-RSV mediated depletion of TyrRS | TyrRS levels ([4]; higher doses of ISRIB (250-500 nM)): decreased TyrRS levels | effect on trans-RSV-mediated neurotoxicity [1]: protected against neurotoxic effects of trans-RSV | histone H3 serine-ADP-ribosylation [6]: induction of histone H3 serine-ADP-ribosylation

NCCc1ccc(O)c(O)c1 [DA, dopamine]
TyrRS protein levels [4]: increased the protein levels of TyrRS | effect on trans-RSV-mediated neurotoxicity [1]: protected against neurotoxic effects of trans-RSV | histone H3 serine-ADP-ribosylation [6]: stimulated histone H3 serine-ADP-ribosylation

C[n+]1ccc(-c2ccccc2)cc1 [MPP+, 1-methyl-4-phenylpyridinium]
levels of neuronal TyrRS [4]: decreased the levels of neuronal TyrRS

CC(C)C[C@@H](C=O)NC(=O)[C@H](CC(C)C)NC(=O)[C@H](CC(C)C)NC(=O)OCc1ccccc1 [MG132] (Cbz-Leu-Leu-Leu-aldehyde)
TyrRS protein levels [4, 11]: increased the levels of TyrRS

amyloid beta 42: amyloid beta 42 peptide at physiological picomolar concentration
monosome formation ([2]; picomolar amyloid beta 42 (5-50 pM; 10 picomolar in FIG. 20A)): endogenous stimulator of monosome formation | chromatin trapping of auto-PARylated PARP1 with Rad52, DNA polymerase beta, ligase III, TyrRS [10]: trapping of auto-PARylated PARP1 along with Rad52, DNA polymerase beta, ligase III, TyrRS onto the chromatin | neuronal TyrRS levels [4]: stimulation of neuronal TyrRS protein levels; also recorded: endogenous stimulator | histone serine-ADP-ribosylation [6]: activation of histone serine-ADP-ribosylation; also recorded: endogenous stimulator

C[C@@H]1C[C@@H]([C@H](O)CC2CC(=O)NC(=O)C2)C(=O)[C@@H](C)C1 [cycloheximide]
effect on cis-RSV-mediated increase in TyrRS level ([4]; combination with cis-RSV): abrogated | TyrRS protein levels [4, 11]: decreased TyrRS levels

amyloid beta 40: amyloid beta 40 peptide at picomolar concentration
neuronal TyrRS levels [4]: stimulation of neuronal TyrRS protein levels | histone serine-ADP-ribosylation [6]: activation of histone serine-ADP-ribosylation

CO/C1=C\C(C)=C\[C@@H](C)[C@@H](O)[C@@H](C)C/C(C)=C/C=C/[C@H](OC)[C@@H]([C@@H](C)[C@@H](O)[C@H](C)[C@@]2(O)C[C@@H](O)[C@H](C)[C@@H](C(C)C)O2)OC1=O [bafilomycin]
TyrRS protein levels [4, 11]: increased the levels of TyrRS

Cc1c(O)cccc1C(=O)N[C@@H](CSc1ccccc1)[C@H](O)CN1C[C@H]2CCCC[C@H]2C[C@H]1C(=O)NC(C)(C)C [nelfinavir]
TyrRS protein levels [4, 11]: depleted neuronal TyrRS

NCCc1cc(O)c(O)cc1O [Formula 6-OHDA, 6-hydroxydopamine]
PheRSβ levels [3]: decreased the levels of TyrRS and PheRSβ | TyrRS protein levels [4, 11]: decreased the levels of TyrRS

B1: BDNF: brain-derived neurotrophic factor (protein, UniProt P23560 19-247, looked up)
Neurotrophic factor BDNF …: APMKEANIRGQGGLAYPGVRTHGTLESVNGPKAGSRGLTSLADTFEHVIEELLDEDQKVRPNEENNKDADLYTSRVMLSSQVPLEPPLLFLLEEYKNYLDAANMSMRVRRHSDPARRGELSVCDSISEWVTAADKKTAVDMSGGTVTVLEKVPVSKGQLKQYFYETKCNPMGYTKEGCRGIDKRHWNSQCRTTQSYVRALTMDSKKRIGWRFIRIDTSCVCTLTIKRGR
HPF1 levels [8]: increased HPF1 levels | TyrRS protein levels [4, 11]: stimulates the de novo synthesis of neuronal TyrRS | histone H3 serine-ADP-ribosylation [6]: induction of histone H3 serine-ADP-ribosylation
